From article PMC7493195 (Journal of medicinal chemistry, 2020)
Values belong to the molecule of their own block, whether it stands above or below them.

Key:
SRC = SRC (Homo sapiens, UniProt P12931); assay: Z’LYTE / LanthaScreen kinase assay; type: biochemical
FGFR1 = FGFR1 (Homo sapiens, UniProt P11362); assay: Z’LYTE / LanthaScreen kinase assay; type: biochemical
[1] = test system: MDA-MB-231, H1975 and HCC827 cells; settings: 72 h, three cell lines
[2] = test system: panel of 468 human kinases; settings: 1 μM, 468 kinases, cited from earlier work
MEK1/2 and ERK1/2 = assay: Cellular target engagement, TL13–68 competition pulldown, MEK1/2 and ERK1/2; type: cell-based; settings: H1975 and HCC827 cells, 1 μM, 2 h
[3] = Stability in mouse liver microsomes; type: in vitro ADME
p-SRC^Y416 [4] = settings: H1975 and HCC827 cells, 1 μM, 2 h
p-SRC^Y416 [5] = settings: H1975, 1 μM, 2 h, then 0, 2, 4 h postwashout
p-SRC^Y416 [6] = settings: 3 doses of 5 mg/kg IP, 2 and 4 h after last dose
kinases = settings: cited from earlier work

Sequence of SRC (P12931 whole entry): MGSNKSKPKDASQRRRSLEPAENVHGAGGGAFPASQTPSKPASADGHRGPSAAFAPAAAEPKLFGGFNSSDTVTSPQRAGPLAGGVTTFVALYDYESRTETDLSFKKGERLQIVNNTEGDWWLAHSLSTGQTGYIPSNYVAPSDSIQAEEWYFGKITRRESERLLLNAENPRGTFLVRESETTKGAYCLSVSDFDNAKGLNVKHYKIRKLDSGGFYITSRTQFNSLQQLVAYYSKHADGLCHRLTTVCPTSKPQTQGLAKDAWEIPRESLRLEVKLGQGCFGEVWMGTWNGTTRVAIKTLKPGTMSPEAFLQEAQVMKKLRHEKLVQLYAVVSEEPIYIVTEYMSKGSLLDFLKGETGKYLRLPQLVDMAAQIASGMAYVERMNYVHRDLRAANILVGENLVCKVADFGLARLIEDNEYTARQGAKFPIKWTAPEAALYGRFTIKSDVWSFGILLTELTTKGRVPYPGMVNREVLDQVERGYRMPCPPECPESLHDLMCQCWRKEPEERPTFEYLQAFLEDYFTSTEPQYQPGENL
Sequence of FGFR1 (P11362 22-822): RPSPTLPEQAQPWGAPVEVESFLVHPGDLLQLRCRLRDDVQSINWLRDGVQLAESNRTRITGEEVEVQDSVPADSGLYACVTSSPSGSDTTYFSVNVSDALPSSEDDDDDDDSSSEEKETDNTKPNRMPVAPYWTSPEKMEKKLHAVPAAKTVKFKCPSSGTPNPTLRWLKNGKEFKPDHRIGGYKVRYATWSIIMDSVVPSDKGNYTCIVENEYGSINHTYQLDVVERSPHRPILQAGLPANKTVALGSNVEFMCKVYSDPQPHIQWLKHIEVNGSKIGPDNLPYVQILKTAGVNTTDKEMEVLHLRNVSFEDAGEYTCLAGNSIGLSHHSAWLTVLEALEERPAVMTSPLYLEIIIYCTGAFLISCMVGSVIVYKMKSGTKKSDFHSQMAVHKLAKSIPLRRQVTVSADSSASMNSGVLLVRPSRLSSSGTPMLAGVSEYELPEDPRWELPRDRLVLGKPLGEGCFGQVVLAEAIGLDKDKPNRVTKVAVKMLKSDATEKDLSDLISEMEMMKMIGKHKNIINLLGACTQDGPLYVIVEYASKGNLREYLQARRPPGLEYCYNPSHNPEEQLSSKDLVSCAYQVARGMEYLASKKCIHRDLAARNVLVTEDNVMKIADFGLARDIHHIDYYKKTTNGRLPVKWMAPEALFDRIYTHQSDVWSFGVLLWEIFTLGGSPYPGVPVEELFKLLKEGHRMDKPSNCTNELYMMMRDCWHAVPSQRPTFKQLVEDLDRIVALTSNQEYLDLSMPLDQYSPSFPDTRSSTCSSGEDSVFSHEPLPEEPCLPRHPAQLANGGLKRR

SMILES: CN1CCN(CCOc2cc(OC3CCOCC3)c3c(Nc4c(Cl)ccc5c4OCO5)ncnc3c2)CC1 [AZD0530]
growth inhibitory potency, in words [1]: weaker potency compared to 15a

SMILES: C=CC(=O)Nc1ccccc1Nc1nc(Nc2ccc(N3CCN(C)CC3)cc2)ncc1Cl [SM1–71]
selectivity score S(35) ([2]; specified percent inhibition 35%): 0.43
number of kinases hit [2]: more than 100 kinases

SMILES: Cc1nc(Nc2ncc(C(=O)Nc3c(C)cccc3Cl)s2)cc(N2CCN(CCO)CC2)n1 [dasatinib]
number of kinases inhibited (kinases): > 30 kinases

SMILES: COc1cc(Nc2c(C#N)cnc3cc(OCCCN4CCN(C)CC4)c(OC)cc23)c(Cl)cc1Cl [bosutinib]
number of kinases inhibited (kinases): > 45 kinases

Now from value to molecule, other results behind:

activity on SRC, in words (SRC): complete loss of activity
activity on FGFR1, in words (FGFR1): complete loss of activity
SMILES: C=CC(=O)Nc1ccccc1Nc1nc(Nc2ccc(N3CCN(C)CC3)cc2)ncc1C(=O)Nc1ccc(Oc2ccccc2)cc1 [Compound 15i, 4-((2-Acrylamidophenyl)amino)-2-((4-(4-methylpiperazin-1-yl)-phenyl)amino)-N-(4-phenoxyphenyl)pyrimidine-5-carboxamide]

loss of activity on FGFR1 compared to SM1–71 (FGFR1): 20 fold
SMILES: C=CC(=O)Nc1ccccc1Nc1nc(Nc2ccc(N3CCN(C)CC3)cc2)ncc1OCc1ccc(Oc2ccccc2)cc1 [Compound 10c, N-(2-((2-((4-(4-Methylpiperazin-1-yl)phenyl)amino)-5-((4-phenoxybenzyl)oxy)pyrimidin-4-yl)amino)phenyl)acrylamide]

half-life [3]: 5.2 min
SMILES: C=CC(=O)Nc1ccccc1Nc1nc(Nc2ccc(N3CCN(C)CC3)cc2)ncc1C(=O)Nc1c(C)cccc1Cl [Compound 15a, 4-((2-Acrylamidophenyl)amino)-N-(2-chloro-6-methylphenyl)-2-((4-(4-methylpiperazin-1-yl)phenyl)amino)pyrimidine-5-carboxamide]
cellular engagement of MEK1/2 or ERK1/2 (MEK1/2 and ERK1/2): did not engage
inhibition of p-SRC^Y416 signaling (p-SRC^Y416 [4]): inhibited p-SRC^Y416 signaling
inhibition of p-SRC^Y416 signaling after washout (p-SRC^Y416 [5]): potent and sustained inhibition of p-SRC^Y416 signaling up to 4 h postwashout
inhibition of p-SRC^Y416 in spleen (p-SRC^Y416 [6]): inhibition of p-SRC^Y416 at 2 and 4 h postdosing

activity on SRC, in words (SRC): loss of binding
SMILES: C=CC(=O)Nc1ccccc1Nc1nc(Nc2ccc(N3CCC(N4CCN(C)CC4)CC3)cc2)ncc1C(=O)Nc1c(C)cccc1Cl [Compound 17c, 4-((2-Acrylamidophenyl)amino)-N-(2-chloro-6-methylphenyl)-2-((4-(4-(4-methylpiperazin-1-yl)piperidin-1-yl)phenyl)amino)-pyrimidine-5-carboxamide]
